Legend:
Type in all cases: in vivo, human
[1] = tested on: impulsive aggression in ADHD patients; test: Phase IIb study, R-MOAS score change from baseline
Method: (§1) A Phase IIb study was conducted for the treatment of impulsive aggression in Attention Deficit and Hyperactivity Disorder (ADHD) patients with a pharmaceutical preparation of molindone. The study was a multi-center randomized, double-blind, placebo controlled clinical trial in children 6 to 12 diagnosed with ADHD and characterized by impulsive aggression that is not controlled by optimal stimulant and psychosocial treatment. It was a dose finding study with the primary objective of identifying an effective dose range in children of different weight or age groups. The children were divided into two […] (i.e., less than 30 kg and greater than or equal to 30 kg). The low, medium, and high doses for the under 30 kg group were 12 mg, 24 mg, and 36 mg, respectively. Similarly, the low, medium, and high doses for the 30 kg and over group were 18 mg, 36 mg, and 54 mg, respectively. Three doses of molindone were studied with the primary endpoints of (a) effect in reducing impulsive aggression (measured with change in the score of the Retrospective-Modified Overt Aggression Scale “R-MOAS” at the end of the study from the baseline), and (b) rate of remission of aggression, after at least three weeks of treatment. Secondary objectives included safety and tolerability of molindone as well as the effect on the Clinical Global Impression and the Oppositional […] Disorder subscale score of the SNAP-IV Questionnaire and other endpoints [e.g., SNAP, clinical labs, AEs, etc.]. Patients who completed the study were offered the opportunity to continue into an open-label phase of six months duration.

[2] = tested on: impulsive aggression in ADHD patients; test: Phase IIb study, rate of remission of aggression (R-MOAS ≦ 10); settings: for Remission Rate at End of Study (Visit 10): R-MOAS ≦ 10, LOCF
Method: as §1

[3] = Phase IIb study, safety and tolerability; settings: throughout the study, across all doses
Method: A Phase IIb study was conducted for the treatment of impulsive aggression in Attention Deficit and Hyperactivity Disorder (ADHD) patients with a pharmaceutical preparation of molindone. The study was a multi-center randomized, double-blind, placebo controlled clinical trial in children 6 to 12 diagnosed with ADHD and characterized by impulsive aggression that is not controlled by optimal stimulant and psychosocial treatment. It was a dose finding study with the primary objective of identifying an effective dose range in children of different weight or age groups. The children were divided into two […] (i.e., less than 30 kg and greater than or equal to 30 kg). The low, medium, and high doses for the under 30 kg group were 12 mg, 24 mg, and 36 mg, respectively. Similarly, the low, medium, and high doses for the 30 kg and over group were 18 mg, 36 mg, and 54 mg, respectively. Three doses of molindone were studied with the primary endpoints of (a) effect in reducing impulsive aggression (measured with change in the score of the Retrospective-Modified Overt Aggression Scale “R-MOAS” at the end of the study from the baseline), and (b) rate of remission of aggression, after at least three weeks of treatment. Secondary objectives included safety and tolerability of molindone as well as the effect on the Clinical Global Impression and the Oppositional […] […]

For `CCc1c(C)[nH]c2c1C(=O)C(CN1CCOCC1)CC2` (stereo not drawn) [molindone], the “efficacy across any of the measures” value ([1]; 30 kg or more, high dose (54 mg)) was “did not show efficacy”, the “R-MOAS (LOCF) Change from Baseline, mean (SD)” value (“R-MOAS (LOCF) Change … (SD)” for short) ([1]; <30 kg, high dose (36 mg)) was −16.4 (36.90) and the “R-MOAS (LOCF) End of treatment (visit 10), mean (SD)” value (shortened to “R-MOAS (LOCF) End … (SD)”) ([1]; <30 kg, high dose (36 mg)) was 32.2 (24.14). For the same molecule, the “R-MOAS (LOCF) Change … (SD)” value ([1]; <30 kg, low dose (12 mg)) was −25.1 (23.00), the “R-MOAS (LOCF) End … (SD)” value ([1]; <30 kg, low dose (12 mg)) was 34.2 (27.29) and the “R-MOAS (LOCF) Change … (SD)” value ([1]; <30 kg, medium dose (24 mg)) was −30.7 (31.22). The “R-MOAS (LOCF) End … (SD)” value ([1]; <30 kg, medium dose (24 mg)) was 38.5 (36.70), the “statistical significance vs placebo on the R-MOAS endpoint” value ([1]; patients under 30 kg, the studied doses (12, 24, 36 mg)) was “did not show statistical significance” and the “R-MOAS (LOCF) Change … (SD)” value ([1]; ≧30 kg, high dose (54 mg)) was −23.0 (27.55). The “R-MOAS (LOCF) End … (SD)” value ([1]; ≧30 kg, high dose (54 mg)) was 28.8 (40.60), the “R-MOAS (LOCF) Change … (SD)” value ([1]; ≧30 kg, low dose (18 mg)) was −41.7(32.48) and the “R-MOAS (LOCF) End … (SD)” value ([1]; ≧30 kg, low dose (18 mg)) was 9.8 (13.01). For the same molecule, the “R-MOAS (LOCF) Change … (SD)” value ([1]; ≧30 kg, medium dose (36 mg)) was −40.9(34.84), the “R-MOAS (LOCF) End … (SD)” value ([1]; ≧30 kg, medium dose (36 mg)) was 13.5(15.71) and the “Remission, Treatment vs Placebo Odds Ratio” value ([2]; <30 kg, high dose (36 mg)) was 0.62. The “Remission, Treatment vs Placebo Odds Ratio” value ([2]; <30 kg, low dose (12 mg)) was 1.53, the “Remission, Treatment vs Placebo Odds Ratio” value ([2]; <30 kg, medium dose (24 mg)) was 1.36 and the “Remission Rate at End of Study (Visit 10)” value (shortened to “Remission Rate at End”) ([2]; <30 kg, high dose (36 mg)) was 3 (21.4) n(%). For the same molecule, the “Remission Rate at End” value ([2]; <30 kg, low dose (12 mg)) was 4 (33.3) n(%), the “Remission Rate at End” value ([2]; <30 kg, medium dose (24 mg)) was 4 (26.7) n(%) and the “Remission Rate at End” value ([2]; ≧30 kg, high dose (54 mg)) was 7 (41.2) n(%). For the same molecule, the “Remission Rate at End” value ([2]; ≧30 kg, low dose (18 mg)) was 10 (66.7) n(%), the “Remission Rate at End” value ([2]; ≧30 kg, medium dose (36 mg)) was 8 (53.3) n(%) and the “Remission, Treatment vs Placebo Odds Ratio” value ([2]; ≧30 kg, high dose (54 mg)) was 4.07. The “Remission, Treatment vs Placebo Odds Ratio” value ([2]; ≧30 kg, low dose (18 mg)) was 12.08, the “Remission, Treatment vs Placebo Odds Ratio” value ([2]; ≧30 kg, medium dose (36 mg)) was 7.07 and the tolerability [3] was “well tolerated”.
